From BigSolDB 2.1

C/C=C/C=C/C(=O)O
solubility (mole fraction)
Details	285.15 K	289.15 K	293.15 K	298.15 K	303.15 K	308.15 K	312.65 K	318.15 K	323.15 K
in MTBE	0.0403	0.0439	0.0512	0.0577	0.0693	0.0785	0.093	0.109	0.121
in acetone	0.0476	0.0528	0.0613	0.0701	0.0871	0.0968	0.115	0.14	0.156
in acetonitrile	0.00625	0.00746	0.0098	0.0112	0.0149	0.0172	0.0196	0.0248	0.0306
in ethanol	0.0442	0.0488	0.0572	0.0643	0.0747	0.0872	0.101	0.121	0.143
in ethyl acetate	0.0266	0.0314	0.0357	0.0452	0.0542	0.0626	0.0713	0.0862	0.102
in isopropanol	0.0383	0.0444	0.053	0.0613	0.0684	0.0753	0.086	0.0965	0.103
in methanol	0.0328	0.0392	0.0457	0.0553	0.0643	0.0749	0.083	0.0934	0.106
in n-butanol	0.0619	0.0738	0.0844	0.0973	0.108	0.121	0.135	0.154	0.173
